# Measured values from PubChem BioAssay AID858 (Vanderbilt High Throughput Screening Facility, 2007).
# Active and inactive are the calls of the source.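 The calls were made as follows: active = at least two of three replicate dose series yielding a converging curve fit, whether well or thinly supported; inactive = the rest.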
# Target: D(1A) dopamine receptor (Homo sapiens) (UniProt P21728)
# Test: concentration-dependent D1 reporter signal change – cell-based, CRE-luciferase, HEK293, dopamine EC30, D1 allosteric modulator project, dose response (AID 858);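 also: HEK 293 cells bearing human D1 receptor stimulated by dopamine at its EC30; luciferase light from a cAMP response element reporter gene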
# D(1A) dopamine receptor (Homo sapiens), sequence (P21728 whole entry, looked up): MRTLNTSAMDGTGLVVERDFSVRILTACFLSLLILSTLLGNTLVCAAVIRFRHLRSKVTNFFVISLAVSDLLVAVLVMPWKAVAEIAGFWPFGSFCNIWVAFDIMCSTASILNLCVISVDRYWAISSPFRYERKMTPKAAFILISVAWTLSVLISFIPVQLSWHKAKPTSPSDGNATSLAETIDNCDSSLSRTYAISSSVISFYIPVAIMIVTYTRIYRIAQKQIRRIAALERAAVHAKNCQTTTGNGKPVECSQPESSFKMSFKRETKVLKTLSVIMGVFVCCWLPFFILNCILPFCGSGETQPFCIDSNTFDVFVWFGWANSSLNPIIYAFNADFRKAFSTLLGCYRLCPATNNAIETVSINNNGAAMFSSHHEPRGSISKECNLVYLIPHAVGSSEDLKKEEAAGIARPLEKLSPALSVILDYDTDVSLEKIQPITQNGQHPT
SMILES,outcome,EC50 [µM]
Cn1c(=O)c2c(-c3ccc(C(C)(C)C)cc3)n(N3CCOCC3)cc2n(C)c1=O,inactive,
CC(C)c1ccc(-c2nc(N3CCCCC3)[nH]c(=O)c2C#N)cc1,,1.75
CCN1C(=O)c2cccc3c(S(=O)(=O)Nc4ccccn4)ccc1c23,inactive,
CCc1nc2sc3ccccc3c(=O)c2c(=O)n1Cc1ccco1,inactive,
CCN(CC)CCOc1c(Br)ccc2c1sc1nc3n(c(=O)c12)CCC3,inactive,
C=CCn1c2ccccc2c2nnc(SCC(=O)NC(C(=O)OC)C(C)C)nc21 (configuration not stated),inactive,
COC(=O)Nc1ccc2c(c1)N(C(=O)CCN1CCOCC1)c1ccccc1S2,inactive,
O=c1cc(-c2ccccc2)c2c([nH]1)CCCC2,inactive,
CC1(C)Cc2c(C#N)c(NC3CCCCC3)nc(-c3ccco3)c2CO1,,2.6
C=CCn1c(=S)[nH]c2nc3c(cc2c1=O)CCCC3,inactive,
Cc1cccc(Cc2c(C)nc3c(C(=O)NCc4ccco4)cnn3c2C)c1,inactive,
COCCCNc1c2c3c(cccc3[nH]c1=O)C(=O)c1ccccc1-2,inactive,
NC(=O)c1cc(-c2ccccc2)nc(N2CCCCCC2)n1,inactive,
COc1ccc(-c2coc3cc(O)ccc3c2=O)cc1OC,inactive,
COC(=O)c1ccc(COc2nc(C)cc(C)c2C#N)o1,inactive,
CCOC(=O)c1c(-c2cccs2)csc1NC(=O)CSc1ncn[nH]1,inactive,
Clc1ccc(-n2nnnc2-c2ccccc2)cc1,inactive,
Cc1cc(=O)c2n(Cc3ccc(Cl)cc3)nc[n+]2[nH]1,inactive,
O=C(CCCc1nc2ccccc2s1)N1CCN(S(=O)(=O)c2cccs2)CC1,inactive,
Cc1csc2c(C#N)c(=O)c3c(n12)CCC3,inactive,
CCOC(=O)N1CCN(C(=O)C(C)(C)Oc2ccc(Cl)cc2)CC1,inactive,
CCOC(=O)c1nc(-c2ccccc2)oc1N(C)C,inactive,
CSc1nc2oc3c(c2c2nncn12)CC(C)(C)SC3,inactive,

SMILES,outcome,EC50 [µM]
COCCNc1oc(-c2ccc(C)cc2)nc1C#N,inactive,
COc1ccc(OC)c(C2=NOC(C(=O)Nc3cccc(C(C)=O)c3)C2)c1 (configuration not stated),inactive,
O=C(OCC#CCSc1nnc(-c2ccc(Br)cc2)o1)c1ccco1,inactive,
O=C(CC1SC(=NC2CCCCC2)NC1=O)Nc1ccccc1 (configuration not stated),inactive,
C=CCNc1sc(C(=O)C(C)(C)C)c(N)c1C#N,,1.14
CCOC(=O)N1CCN(C(=O)CCCn2c(=S)[nH]c3ccccc3c2=O)CC1,inactive,
N#CCCN1CCN(S(=O)(=O)c2ccc(S(=O)(=O)NC3CCCCC3)cc2)CC1,inactive,
CCOc1ccccc1C1CC(c2ccccc2)Nc2nc(N)nn21 (configuration not stated),inactive,
CCc1nc(N2CCCCC2)c2oc3ccccc3c2n1,inactive,
CC(=O)C1=C(C)NC(SCC(=O)c2ccc(F)cc2)=C(C#N)C1c1ccco1 (configuration not stated),inactive,
C=CCSc1nc2ccccc2c(=O)[nH]1,inactive,
N#CC1=C(N)n2c(s/c(=C\c3ccco3)c2=O)=C(C#N)C1c1ccco1 (configuration not stated),inactive,
CCC(=O)NC(=Nc1nc2ccccc2s1)NC(=O)CC,inactive,
CSc1ccc(C2C(C#N)=C(N)N(c3ccccc3)C3=C2C(=O)CCC3)cc1 (configuration not stated),inactive,
C=CCc1c(C)nc(SC)nc1Nc1ccc(C(=O)O)cc1,inactive,
Cc1cccc(C2CC(c3ccc(F)cc3)Nc3nc(N)nn32)c1 (configuration not stated),inactive,
COC(=O)c1ccc(OCCn2cnc3ccccc3c2=O)cc1,inactive,
Cn1nnnc1SCC(=O)Nc1nc(-c2ccccc2)c(-c2ccccc2)o1,inactive,
O=C(NCc1ccco1)c1cnn2c(C(F)(F)F)cc(-c3ccco3)nc12,inactive,
Cc1nc(-c2ccc(S(=O)(=O)N3CCCCCC3)cc2)cs1,inactive,
c1ccc(-c2nc3nonc3nc2-c2ccccc2)cc1,inactive,
COc1ccccc1NC(=O)CC1Nc2ccccc2NC1=O (configuration not stated),inactive,
CC(=O)N=c1sc2nc3ccccc3nc2n1N(C(C)=O)C(C)=O,inactive,

SMILES,outcome,EC50 [µM]
O=C1N(CN2CCN(c3cccc(Cl)c3)CC2)c2ccccc2C12OCCCO2,inactive,
Cc1cc(-n2nc(C)cc2C)nc(NS(=O)(=O)c2ccccc2)n1,inactive,
CCOc1ccccc1NC(=O)CN(C)S(=O)(=O)c1cccc2nsnc12,inactive,
CCCCNC(=O)Nc1ccc(Br)cn1,,2.43
CN(C)c1oc(-c2ccccc2Cl)nc1C#N,inactive,
N#Cc1c(N)nc(-c2ccccc2)nc1-c1ccccc1,,1.17
Nc1nonc1-n1nnc(C(=O)c2ccccc2)c1-c1ccccc1,inactive,
CC(C)Cn1c(=O)c2c(c3ccccc31)OC(C)C(=O)N2 (configuration not stated),inactive,
CC1=CC(C)(C)N=C(NC#N)N1,inactive,
Cc1ccccc1NC(=O)c1nc[nH]c1C(=O)NCc1ccccc1,inactive,
COc1ccc(-n2nc3ccccc3n2)cc1,inactive,
CC(=O)Nc1nc2n(n1)C(c1ccccc1)C=C(c1ccccc1)N2 (configuration not stated),inactive,
COc1cccc(-c2nnc(SCC(=O)Nc3cc(C)on3)o2)c1,inactive,
CCOC(=O)c1ccc(Oc2cc(C)nc(SC)n2)cc1,inactive,
CS(=O)(=O)c1sc2nc(-c3cccs3)cc(-c3ccccc3)c2c1N,inactive,
CCCn1c(=O)c2ccccc2n2c(SCc3nc4ccccc4s3)nnc12,inactive,
COc1ccc(-c2noc(CCN3C(=O)c4ccccc4C3=O)n2)cc1OC,,0.309
CCOC(=O)C(O)(CCC(O)(C(=O)OCC)C(=O)OCC)C(=O)OCC,inactive,
CCn1ncc(C2=NOC(C(=O)Nc3ccc4c(c3)OCO4)C2)c1C (configuration not stated),inactive,
CCCn1c(SCC(=O)Nc2sc(C)c(C)c2C(=O)OCC)nc2c1c(=O)n(C)c(=O)n2C,inactive,
O=C1CC(c2ccsc2)c2cc3c(cc2N1)OCCO3 (configuration not stated),inactive,
Clc1ccccc1-c1nn2c(-c3ccncc3)nnc2s1,inactive,
CCOC(=O)c1c(-c2ccncc2)csc1N,inactive,

SMILES,outcome,EC50 [µM]
Cn1cnc2c1c(=O)n(Cc1ccc(F)cc1Cl)c(=O)n2C,inactive,
O=C(CCSc1nc2ccccc2o1)N1CCOCC1,inactive,
Clc1ccccc1Cn1nnc2c(N3CCCC3)ncnc21,inactive,
O=C(CCc1ccc(CCC(=O)c2cccs2)s1)c1cccs1,inactive,
Cc1cccc(-c2c3c(=O)n(C)c(=O)n(C)c3cn2-c2ccccc2O)c1,inactive,
C1CCC(c2nn3c(-c4n[nH]c5c4CCC5)nnc3s2)CC1,,1.14
COc1cccc(NC2=NCC(=O)N2Cc2cccs2)c1,inactive,
COc1cc2c(cc1OC)C(C(=O)Nc1ccc3c(c1)OCCO3)C1c3ccccc3CCN1C2=O (configuration not stated),inactive,
CCOC(=O)c1c(C)oc2c1c(C=NCc1ccccn1)c(O)c1ccccc12,inactive,
COC(=O)c1ccc(CSc2nc3c(cnn3-c3ccc(F)cc3)c(=O)[nH]2)o1,,2.49
Nc1nc(SCc2ccc3c(c2)OCCO3)n[nH]1,inactive,
C/C(CCc1oc2ccccc2c1-c1ccc(C)o1)=N/O,inactive,
CCCCn1c(=NC(=O)c2cccnc2)c(C(=O)OCC)cc2c(=O)n3ccccc3nc21,,2.02
Cc1nc2sc3c(c2c(=O)[nH]1)CCC3,inactive,
COC(=O)/C(=C1/Oc2cc3c(cc2S1)OCO3)C(F)(F)F,inactive,
CCc1nn(CCCC(=O)N2CCc3ccccc3C2)c(=O)c2cc3occc3n12,inactive,
Cc1cc(C)n(-c2nc3ccccc3nc2Nc2ccc(CC(=O)O)cc2)n1,inactive,
CCCNc1nc2c(c(=O)[nH]c(=O)n2C)n1CCc1ccccc1,inactive,
c1csc(-c2nn3c(Cn4nnc5ccccc54)nnc3s2)c1,inactive,
CCCCn1c(=NC(=O)c2ccco2)c(C(=O)OCC)cc2c(=O)n3ccccc3nc21,inactive,
O=C1COc2ccccc2N1Cc1ccccc1Cl,inactive,
COC(=O)c1ccc(C(=O)OC)c(NC(=O)COC(=O)C23CC4CC(CC(O)(C4)C2)C3)c1,inactive,
CCOC(=O)c1c(NC(=O)c2cccs2)sc(C)c1CC,inactive,

SMILES,outcome,EC50 [µM]
Cc1c(C)c2ccc(OC3CCCCC3=O)cc2oc1=O (configuration not stated),inactive,
CC1(C)CN=C(Nc2nc3ccccc3s2)S1,inactive,
Cn1c(=O)c2c(nc(SCCCC#N)n2Cc2ccccc2F)n(C)c1=O,inactive,
CCC(Sc1nc(=O)cc(N)n1CCc1ccccc1)C(=O)Nc1ccccc1C#N (configuration not stated),inactive,
CCn1c2ccccc2c2nnc(SCCCn3c(=O)[nH]c4ccccc43)nc21,inactive,
Cc1cc(C)n2c3c(c(C#N)c2n1)CCCC3,inactive,
N#Cc1cnn(Cc2ccccc2)c1/N=C/N1CCOCC1,inactive,
CCn1c(SCc2cccnc2)nc2c1c(=O)n(C)c(=O)n2C,inactive,
Cc1ccc(Nc2nnc(SCc3cc(=O)n4ccsc4n3)s2)c(C)c1,inactive,
Clc1ccccc1-c1nnc2sc(-c3ccc(Br)o3)nn12,inactive,
CCCCn1c(=O)c(C(=O)Nc2cnccn2)c(O)c2ccccc21,inactive,
CC(C)n1c(C(O)c2ccccc2)nc2ccccc21 (configuration not stated),inactive,
CCOC(=O)CN(C(=O)CSc1nnc(-c2ccc(OC)c(OC)c2)o1)c1ccc(F)cc1,inactive,
Cc1ccc(-n2cnnn2)c2cccnc12,inactive,
O=C1CSc2ccccc2N1Cc1ccccc1F,inactive,
CC1(C)CC(=O)C2=C(C1)OC(N)=C(C#N)C2c1cccc(OC(=O)c2ccco2)c1 (configuration not stated),inactive,
CCOC(=O)c1[nH]c2ccccc2c1NC(=O)C(C)(C)C,inactive,
CCOC(=O)c1c(C)c(C(=O)NCc2ccc3c(c2)OCO3)c(C)n1C,inactive,
Cn1c(Cn2c(=O)sc3ccccc32)nnc1SCC(=O)N1CCOCC1,inactive,
COc1ccc(OC)c(C2C=C(c3ccc(C)c(C)c3)Nc3nnnn32)c1 (configuration not stated),inactive,
